In patent publication US20200031778A1, “NOVEL 5-SUBSTITUTED IMIDAZOLYLMETHYL DERIVATIVES” (Bayer CropScience Aktiengesellschaft, priority 2016, published 2020):

How the values were obtained:
Puccinia recondita = assay: Example IX-A: in vivo preventive test on Puccinia recondita (brown rust on wheat); conditions: 264 h, compounds of formula IX, 500 ppm of active ingredient, wheat plants, preventive spray, evaluated 11 days after inoculation, read-out: efficacy
Method: Example IX-A: In Vivo Preventive Test on Puccinia Recondita (Brown Rust on Wheat)
(§1) The active ingredients are made soluble and homogenized in a mixture of Dimethyl sulfoxide/Acetone/Tween® 80 and then diluted in water to the desired concentration.
The young plants of wheat are treated by spraying the active ingredient prepared as described above. Control plants are treated only with an aqueous solution of Acetone/Dimethyl sulfoxide/Tween® 80.
After 24 hours, the plants are contaminated by spraying the leaves with an aqueous suspension of Puccinia recondita spores. The contaminated wheat plants are incubated for 24 hours at 20° C. and at 100% relative humidity and then for 10 days at 20° C. and at 70-80% relative humidity.
(§2) The test is evaluated 11 days after the inoculation. 0% means an efficacy which corresponds to that of the control plants while an efficacy of 100% means that no disease is observed.

Septoria tritici = assay: Example IX-B: in vivo preventive test on Septoria tritici (leaf spot on wheat); conditions: Zymoseptoria tritici, 576 h; compounds of formula IX; 500 ppm of active ingredient; wheat plants, preventive spray; evaluated 24 days after inoculation; read-out: efficacy
Summary of the method: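 Wheat seedlings sprayed preventively with compound dissolved in DMSO/acetone/Tween 80 and diluted in water; solvent-only controls. Spore suspension of S. tritici sprayed 24 h later; 72 h at 18 °C/100% RH, then 21 days at 20 °C/90% RH. Efficacy scored 24 days post-inoculation, 0% = control, 100% = no disease.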

Sphaerotheca fuliginea = assay: Example IX-C: in vivo preventive test on Sphaerotheca fuliginea (powdery mildew on cucurbits); conditions: Podosphaera fuliginea, 360 h; compounds of formula IX; 500 ppm of active ingredient; gherkin plants, preventive spray; evaluated 15 days after inoculation; read-out: efficacy
Summary of the method: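 Young gherkin plants sprayed with compound in DMSO/acetone/Tween 80 diluted in water, then inoculated 24 h later with Sphaerotheca fuliginea spores. Kept 72 h at 18 °C/100% RH, then 12 days at 20 °C/70-80% RH; efficacy scored 15 days post-inoculation, 0% = control, 100% = no disease.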

Uromyces appendiculatus = assay: Example IX-D: in vivo preventive test on Uromyces appendiculatus (bean rust); conditions: 264 h, compounds of formula IX, 500 ppm of active ingredient, bean plants, preventive spray, evaluated 11 days after inoculation, read-out: efficacy
Method: Example IX-D: In Vivo Preventive Test on Uromyces Appendiculatus (Bean Rust)
as §1
The young plants of bean are treated by spraying the active ingredient prepared as described above. Control plants are treated only with an aqueous solution of Acetone/Dimethyl sulfoxide/Tween® 80.
After 24 hours, the plants are contaminated by spraying the leaves with an aqueous suspension of Uromyces appendiculatus spores. The contaminated bean plants are incubated for 24 hours at 20° C. and at 100% relative humidity and then for 10 days at 20° C. and at 70-80% relative humidity.
as §2
control plants while an efficacy of 100% means that no disease was observed.

[1] = Log P by HPLC on reversed phase columns (EEC directive 79/831 Annex V.A8; methods [a], [b], [c]); format: physicochemical; conditions: reversed phase HPLC column; method [a]: LC-UV, acidic range, 0.1% formic acid in water and acetonitrile as eluent (linear gradient from 10% to 95% acetonitrile)
Summary of the method: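 Log P derived from retention times, interpolated linearly between bracketing straight-chain alkan-2-ones (3–16 carbons) of known Log P. Eluents ran acetonitrile 10% to 95% against water with 0.1% formic acid ([a], acidic), 0.001 M ammonium acetate ([b], neutral) or 0.1% phosphoric acid ([c], acidic); UV read-out.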

SMILES | chromatographic logP [1] | pest or weed control at 500 ppm (Puccinia recondita) [%] | pest or weed control at 500 ppm (Septoria tritici) [%] | pest or weed control at 500 ppm (Sphaerotheca fuliginea) [%] | pest or weed control at 500 ppm (Uromyces appendiculatus) [%]
N#Cc1cncn1CC(=O)c1ccc(Oc2ccc(Cl)cc2)cc1Cl [IX-31] | 3.46 | 90 to 100 | 90 to 100 | 90 to 100 | 90 to 100
O=C(Cn1cncc1Cl)c1ccc(Oc2ccc(Br)cc2)cc1Br [IX-37] | 3.22 | 80 to 89 | 90 to 100 | 90 to 100 | 90 to 100
O=C(Cn1cncc1Cl)c1ccc(Oc2ccc(Cl)cc2)cc1F [IX-45] | 2.75 | 90 to 100 | 90 to 100 | 90 to 100 | 70 to 79
N#Cc1cncn1CC(=O)c1ccc(Oc2ccc(Cl)cc2)cc1C(F)F [IX-75] | 3.39 | 90 to 100 | 90 to 100 | 90 to 100 | 90 to 100
Cc1ccc(Oc2ccc(C(=O)Cn3cncc3Cl)c(Cl)c2)cc1 [IX-07] | 3.09 | 90 to 100 | 90 to 100 | 90 to 100 | 90 to 100
N#Cc1cncn1CC(=O)c1ccc(Oc2ccc(I)cc2)cc1F [IX-63] | 3.48 | 90 to 100 | 90 to 100 | 90 to 100 | 90 to 100
O=C(Cn1cncc1Br)c1ccc(Oc2ccc(I)cc2)cc1Br [IX-42] | 3.55 | 80 to 89 | 90 to 100 | 90 to 100 | 90 to 100
O=C(Cn1cncc1Cl)c1ccc(Oc2ccc(C(F)(F)F)cc2)cc1Cl [IX-14] | 3.33 | 90 to 100 | 90 to 100 | 90 to 100 | 90 to 100
N#Cc1cncn1CC(=O)c1ccc(Oc2ccc(Br)cc2)cc1Br [IX-67] | 3.62 | 90 to 100 | 90 to 100 | 90 to 100 | 90 to 100
O=C(Cn1cncc1Cl)c1ccc(Oc2ccc(F)cc2)cc1Cl [IX-08] | 2.73 | 80 to 89 | 90 to 100 | 90 to 100 | 90 to 100
N#Cc1cncn1CC(=O)c1ccc(Oc2ccc(Cl)cc2)cc1F [IX-64] | 3.27 | 90 to 100 | 90 to 100 | 90 to 100 | 90 to 100
O=C(Cn1cncc1Br)c1ccc(Oc2ccc(Cl)cc2)cc1Br [IX-33] | 3.13 | 90 to 100 | 90 to 100 | 90 to 100 | 90 to 100
N#Cc1cncn1CC(=O)c1ccc(Oc2ccc(C(F)(F)F)cc2)cc1C(F)(F)F [IX-69] | 3.69 | 90 to 100 | 90 to 100 | 90 to 100 | 90 to 100

The next lines start with results.

chromatographic logP [1] | SMILES | pest or weed control at 500 ppm (Puccinia recondita) [%] | pest or weed control at 500 ppm (Septoria tritici) [%] | pest or weed control at 500 ppm (Sphaerotheca fuliginea) [%] | pest or weed control at 500 ppm (Uromyces appendiculatus) [%]
3.09 | O=C(Cn1cncc1Cl)c1cnc(Oc2ccc(Cl)cc2)cc1C(F)(F)F [IX-43] | 80 to 89 | 90 to 100 | 90 to 100 | 90 to 100
2.52 | O=C(Cn1cncc1F)c1ccc(Oc2ccc(Cl)cc2)cc1Cl [IX-65] | 90 to 100 | 90 to 100 | 90 to 100 | 90 to 100
3 | N#Cc1cncn1CC(=O)c1cnc(Oc2ccc(Cl)cc2)cc1Cl [IX-91] | 90 to 100 | 90 to 100 | 90 to 100 | 90 to 100
3.17 | N#Cc1cncn1CC(=O)c1cnc(Oc2ccc(Cl)cc2)cc1C(F)(F)F [IX-109] | 70 to 79 | 90 to 100 | 90 to 100 | 90 to 100
2.75 | O=C(Cn1cncc1Cl)c1cnc(Oc2ccc(Cl)cc2)cc1Cl [IX-23] | 80 to 89 | 90 to 100 | 90 to 100 | 90 to 100
2.84 | O=C(Cn1cncc1F)c1cnc(Oc2ccc(Cl)cc2F)cc1C(F)(F)F [IX-95] | 70 to 79 | 70 to 79 | 90 to 100 | 90 to 100
2.64 | O=C(Cn1cncc1F)c1cnc(Oc2ccc(C(F)(F)F)cc2)cc1Br [IX-111] | 80 to 89 | 90 to 100 | 90 to 100 | 90 to 100
2.39 | O=C(Cn1cncc1F)c1cnc(Oc2ccc(Cl)cc2)cc1Br [IX-93] | 80 to 89 | 90 to 100 | 90 to 100 | 90 to 100
2.88 | O=C(Cn1cncc1F)c1ccc(Oc2ccc(Cl)cc2)cc1C(F)(F)F [IX-83] | 80 to 89 | 90 to 100 | 80 to 89 | 90 to 100
2.82 | O=C(Cn1cncc1Cl)c1cnc(Oc2ccc(Cl)cc2)cc1Br [IX-50] | 80 to 89 | 90 to 100 | 90 to 100 | 90 to 100
2.53 | O=C(Cn1cncc1Cl)c1ccc(Oc2ccc(Cl)cn2)cc1Cl [IX-05] | 70 to 79 | 80 to 89 | 90 to 100 | 80 to 89
2.76 | O=C(Cn1cncc1F)c1ccc(Oc2ccc(Br)cc2)nc1C(F)(F)F [IX-86] | 90 to 100 | 90 to 100 | 90 to 100 | 90 to 100
3.33 | N#Cc1cncn1CC(=O)c1ccc(Oc2ccc(Cl)cc2)nc1C(F)(F)F [IX-107] | 90 to 100 | 90 to 100 | 90 to 100 | 80 to 89
2.5 | O=C(Cn1cncc1F)c1cnc(Oc2ccc(Cl)cc2)cc1C(F)(F)F [IX-104] | 90 to 100 | 90 to 100 | 90 to 100 | 90 to 100
2.89 | O=C(Cn1cncc1F)c1cnc(Oc2ccc(OC(F)(F)F)cc2)cc1C(F)(F)F [IX-108] | 80 to 89 | 90 to 100 | 90 to 100 | 90 to 100
3.65 | N#Cc1cncn1CC(=O)c1ccc(Oc2ccc(Br)cc2)cc1C(F)(F)F [IX-59] | 90 to 100 | 90 to 100 | 90 to 100 | 90 to 100
2.48 | O=C(Cn1cncc1F)c1ccc(Oc2ccc(C(F)F)cc2)nc1C(F)(F)F [IX-134] | 80 to 89 | 90 to 100 | 90 to 100 | 90 to 100
3.64 | N#Cc1cncn1CC(=O)c1cnc(Oc2ccc(OC(F)(F)F)cc2)cc1C(F)(F)F [IX-112] | 80 to 89 | 80 to 89 | 90 to 100 | 90 to 100
